Assay results as given in US9580427B2, “Kinase inhibitors” (The Regents of the University of California, priority 2011, dated 2017).

Molecular target: T1, Btk (human, full length) (Homo sapiens, UniProt Q06187)
T1 construct: Btk (human, full length) was purchased (Invitrogen, catalog number PV3363); purchased Invitrogen PV3363
Test: Btk in vitro kinase activity assay (32P-ATP, poly[Glu:Tyr])
Type: biochemical
Conditions: 30 min pre-incubation with inhibitor, 5 nM Btk
Protocol: General Procedure for Btk In Vitro Kinase Activity Assay.
Btk (human, full length) was purchased (Invitrogen, catalog number PV3363) and used following a procedure modified from the product literature. […] Subsequently, Btk (5 nM final concentration) in kinase assay buffer supplemented with BSA (0.1 mg/mL) was pre-incubated with inhibitors (six or ten concentrations, in duplicate, 5% DMSO final concentration) for 30 minutes at room temperature. Kinase reactions were initiated by the addition of 0.16 μCi/μL of γ-^32P-ATP (6000 Ci/mmol, NEN) and 0.2 mg/mL substrate (poly[Glu:Tyr], 4:1 Glu:Tyr) and incubated for 30 minutes at room temperature. Kinase activity was determined by spotting 5 μL of each reaction onto sheets of phosphocellulose. Each blot was washed once with 10% AcOH solution, twice with 0.1% H3PO4 solution, and once with MeOH (5-10 minutes per wash). Dried blots were exposed for 30 minutes to a storage phosphor screen and scanned by a Typhoon imager (GE Life Sciences). The data were quantified using ImageQuant (v. 5.2, Molecular Dynamics) and plotted using GraphPad Prism 4.0 software.

T1 sequence (Q06187 whole entry): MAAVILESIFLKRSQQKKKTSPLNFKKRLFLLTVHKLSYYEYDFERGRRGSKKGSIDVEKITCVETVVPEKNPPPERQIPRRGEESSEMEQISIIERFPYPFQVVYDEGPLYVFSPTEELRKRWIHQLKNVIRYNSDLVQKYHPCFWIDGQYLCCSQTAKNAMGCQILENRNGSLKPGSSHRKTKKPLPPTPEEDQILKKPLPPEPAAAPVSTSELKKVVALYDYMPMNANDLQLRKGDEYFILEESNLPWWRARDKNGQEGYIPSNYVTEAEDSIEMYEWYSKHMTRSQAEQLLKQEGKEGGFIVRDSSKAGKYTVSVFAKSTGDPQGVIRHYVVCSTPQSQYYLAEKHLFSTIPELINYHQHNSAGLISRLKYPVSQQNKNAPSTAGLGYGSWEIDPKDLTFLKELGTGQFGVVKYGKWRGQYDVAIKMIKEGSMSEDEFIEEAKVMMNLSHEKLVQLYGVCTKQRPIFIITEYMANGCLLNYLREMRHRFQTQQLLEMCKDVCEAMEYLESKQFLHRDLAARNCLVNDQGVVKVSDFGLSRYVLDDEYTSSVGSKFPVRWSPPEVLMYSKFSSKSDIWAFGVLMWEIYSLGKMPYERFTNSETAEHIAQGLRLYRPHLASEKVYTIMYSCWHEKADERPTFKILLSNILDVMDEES

N#C/C(=C\C1CC1)C(=O)N1CCCC(n2nc(-c3ccc(Cl)cc3)c3c(N)ncnc32)C1 (centres unmarked) and N#C/C(=C\C1CC1)C(=O)N1CC[C@@H](n2nc(-c3ccc(Cl)cc3)c3c(N)ncnc32)C1 cannot be ordered by IC50: less than 100 nM for the first, less than 100 nM for the second.

N#C/C(=C\c1ccccc1)C(=O)N1CCCC(n2nc(-c3ccc(Oc4ccccc4)cc3)c3c(N)ncnc32)C1 (centres unmarked) and N#C/C(=C\c1ccccc1Cl)C(=O)N1CCCC(n2nc(-c3ccc(Oc4ccccc4)cc3)c3c(N)ncnc32)C1 (centres unmarked) cannot be ordered by IC50: less than 100 nM for the first, less than 100 nM for the second.

N#C/C(=C\C1CC1)C(=O)N1CCC(Cn2nc(-c3ccc(Oc4ccccc4)cc3)c3c(N)ncnc32)CC1 and N#C/C(=C\C1CC1)C(=O)N1CCCC(Cn2nc(-c3ccc(Oc4ccccc4)cc3)c3c(N)ncnc32)C1 (centres unmarked) [drawing 184] cannot be ordered by IC50: less than 1000 nM for the first, less than 1000 nM for the second.

N#C/C(=C\C1CC1)C(=O)N1CC[C@H](n2nc(-c3ccc(Oc4ccccc4)cc3)c3c(N)ncnc32)C1 and N#C/C(=C\C1CC1)C(=O)N1CC[C@@H](n2nc(-c3ccc(Oc4ccccc4)cc3)c3c(N)ncnc32)C1 cannot be ordered by IC50: less than 1000 nM for the first, less than 1000 nM for the second.

N#C/C(=C\C1CC1)C(=O)N[C@H]1CC[C@@H](n2nc(-c3ccc(Oc4ccccc4)cc3)c3c(N)ncnc32)CC1 and N#C/C(=C\C1CC1)C(=O)N1CCC(n2nc(-c3ccc(Oc4ccccc4)cc3)c3c(N)ncnc32)CC1 cannot be ordered by IC50: less than 1000 nM for the first, less than 1000 nM for the second.

CN(C)C(C)(C)/C=C(\C#N)C(=O)N1CCC[C@@H](n2nc(-c3ccc(Oc4ccccc4)cc3)c3c(N)ncnc32)C1 and CC(C)(/C=C(\C#N)C(=O)N1CCC[C@@H](n2nc(-c3ccc(Oc4ccccc4)cc3)c3c(N)ncnc32)C1)CO cannot be ordered by IC50: less than 100 nM for the first, less than 1000 nM for the second.

Molecular target: BTK (Homo sapiens, UniProt Q06187)
Test: Reversibility of binding: compound in solution before and after perturbation of the target (HPLC-MS/MS)
Conditions: after 5 M guanidine hydrochloride denaturation and trypsin digestion
Protocol: The following approach was developed to differentiate compounds that form irreversible bonds with their targets, such as acrylamide compounds, from compound that bind reversibly. […] The reactions were then treated with perturbations including both denaturation with 5 M guanidine hydrochloride and digestion with trypsin, disrupting proper folding of the target. […] The concentration of compound in solution was assessed both preceding and following perturbation using high performance liquid chromatography (HPLC) coupled to tandem mass spectrometry.

Chain of BTK (Q06187 whole entry): as above

N#C/C(=C\C1CC1)C(=O)N1CCCC(Cn2nc(-c3ccc(Oc4ccccc4)cc3)c3c(N)ncnc32)C1 (centres unmarked) [drawing 187] was tested, and the “Compound in solution in the denatured or digested state?” value was “yes”.

Same assay, conditions: protein target in excess over compound, native state

N#C/C(=C\C1CC1)C(=O)N1CCCC(Cn2nc(-c3ccc(Oc4ccccc4)cc3)c3c(N)ncnc32)C1 (centres unmarked) [drawing 187] was tested, and the “Compound in solution in the native state?” value was “no”.
